Experiments:
ICR mice = assay: Acute toxicity test; type: in vivo; design: Lethality: unit not given here; settings: for Lethality: 10080 min
Method in brief: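 Single i.p. administration to ICR mice (7 weeks old, both sexes, n=6/group); appearance and mortality logged over 7 days, dead animals autopsied for gross pathology.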

[1] = Test for water solubility; type: physicochemical; settings: water
Description: 3. Test for water solubility
A standard plot of UV absorbance(220 nm) vs. concentration was made; and employed to determine water-solubility.
The mixture was then passed through a 0.45 micron disposable membrane filter before dilution and UV measurement.

[2] = tested on: murine leukemia L1210 cells; assay: Growth inhibition test on cultured murine leukemia L1210 cells; type: cell-based; settings: 48 hours, 37° C., Trypan blue viability
Method in brief: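 Read-out is Trypan blue (0.17%) viability versus compound-free controls. Cells, 1×10^5, were cultured 48 h at 37° C under 5% CO2 in RPMI 1640/10% FCS containing various compound concentrations.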

murine leukemia L1210 = assay: Antitumor activity test on murine leukemia L1210 in vivo; design: species or system male BDF1 mice; settings: days 1, 5, 9
Method in brief: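 Male BDF1 mice (6 weeks, 21±3 g; n=7) received 1×10^6 leukemia cells into the peritoneum on day 0, then test compound suspended or dissolved in 0.5% CMC i.p. on days 1, 5, 9. Activity expressed as T/C %, mean survival treated versus 0.5% CMC-injected controls.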

Test for nephrotoxicity = type: in vivo, male ICR mice; settings: 75.0 mg/kg i.p. once
Protocol: 4. Test for nephrotoxicity
The compounds of the present invention were dissolved or suspended in 0.5% CMC solution(in water) and were administered intraperitoneally one time to 8-week-old male ICR mice weighing 30±3 g. Each treatment and control groups consisted of six mice.
The administration amount of the test compound was 1.5 times the optimum dose obtained in Table 2, or more. On days 1, 4 and 8 after administration, their blood was collected under ether anesthesia for measurement of blood urea nitrogen concentration (BUN value) and creatinine concentration.
A pair of kidneys were taken and, after immediate weighing, were stored in a 10% neutral buffered formalin solution. The body weight ratio shown in Table 5 is a ratio of the body weight measured on days 1, 4 and 8 from the administration of the compound to the body weight measured on the administration day.

Structure (SMILES): O=C1[O][Pt-2]2([NH2+]CC3OC4(CCCC4)OC3C[NH2+]2)[O]C(=O)C12CCC2 [Example 30, cis-cyclobutane-1,1-dicarboxylato[(4R,5R)-4,5-bis(aminomethyl)-1,3-dioxolane-2-spiro-1'-cyclopentane]platinum(II)]
- Number of dead mice for 7 days (ICR mice; female, 94 mg/kg i.p.): 0/6
- Number of dead mice, 1st day (ICR mice; female, 94 mg/kg i.p.): 0/6
- Number of dead mice for 7 days (ICR mice; female, 123 mg/kg i.p.): 0/6
- Number of dead mice, 1st day (ICR mice; female, 123 mg/kg i.p.): 0/6
- Number of dead mice for 7 days (ICR mice; female, 160 mg/kg i.p.): 1/6
- Number of dead mice, 1st day (ICR mice; female, 160 mg/kg i.p.): 0/6
- Number of dead mice, 5th day (ICR mice; female, 160 mg/kg i.p.): 1/6
- Lethality (ICR mice; female, 160 mg/kg i.p.): 16.7
- Number of dead mice for 7 days (ICR mice; female, 208 mg/kg i.p.): 4/6
- Number of dead mice, 1st day (ICR mice; female, 208 mg/kg i.p.): 0/6
- Number of dead mice, 3rd day (ICR mice; female, 208 mg/kg i.p.): 2/6
- Number of dead mice, 4th day (ICR mice; female, 208 mg/kg i.p.): 2/4
- Lethality (ICR mice; female, 208 mg/kg i.p.): 66.7
- Number of dead mice for 7 days (ICR mice; female, 270 mg/kg i.p.): 6/6
- Number of dead mice, 1st day (ICR mice; female, 270 mg/kg i.p.): 0/6
- Number of dead mice, 2nd day (ICR mice; female, 270 mg/kg i.p.): 4/6
- Number of dead mice, 3rd day (ICR mice; female, 270 mg/kg i.p.): 2/2
- Lethality (ICR mice; female, 270 mg/kg i.p.): 100.0
- Number of dead mice for 7 days (ICR mice; male, 94 mg/kg i.p.): 0/6
- Number of dead mice, 1st day (ICR mice; male, 94 mg/kg i.p.): 0/6
- Number of dead mice for 7 days (ICR mice; male, 123 mg/kg i.p.): 0/6
- Number of dead mice, 1st day (ICR mice; male, 123 mg/kg i.p.): 1/6
- Number of dead mice for 7 days (ICR mice; male, 160 mg/kg i.p.): 1/6
- Number of dead mice, 1st day (ICR mice; male, 160 mg/kg i.p.): 0/6
- Number of dead mice, 4th day (ICR mice; male, 160 mg/kg i.p.): 1/6
- Lethality (ICR mice; male, 160 mg/kg i.p.): 16.7
- Number of dead mice for 7 days (ICR mice; male, 208 mg/kg i.p.): 5/6
- Number of dead mice, 1st day (ICR mice; male, 208 mg/kg i.p.): 1/6
- Number of dead mice, 2nd day (ICR mice; male, 208 mg/kg i.p.): 1/6
- Number of dead mice, 3rd day (ICR mice; male, 208 mg/kg i.p.): 3/5
- Lethality (ICR mice; male, 208 mg/kg i.p.): 83.3
- Number of dead mice for 7 days (ICR mice; male, 270 mg/kg i.p.): 6/6
- Number of dead mice, 1st day (ICR mice; male, 270 mg/kg i.p.): 0/6
- Number of dead mice, 2nd day (ICR mice; male, 270 mg/kg i.p.): 2/6
- Number of dead mice, 3rd day (ICR mice; male, 270 mg/kg i.p.): 4/4
- Lethality (ICR mice; male, 270 mg/kg i.p.): 100.0
- Solubility in water [1]: 1900 µg/mL
- IC50 (concentration required for 50% inhibition of growth) [2]: 0.55 µg/mL
- T/C (%) (murine leukemia L1210; 6.2 mg/kg i.p.): 109%
- T/C (%) (murine leukemia L1210; 12.5 mg/kg i.p.): 122%
- T/C (%) (murine leukemia L1210; 25 mg/kg i.p.): 110%
- T/C (%) (murine leukemia L1210; 50 mg/kg i.p.): 148%
- T/C (%) (murine leukemia L1210; 100 mg/kg i.p.): 185%

Structure (SMILES): CCC1(CC)OC2C[NH2+][Pt-2]3([NH2+]CC2O1)[O]C(=O)CC(=O)[O]3 [Example 37, cis-malonato[(4R,5R)-4,5-bis(aminomethyl)-2,2-diethyl-1,3-dioxolane]platinum(II)]
- BUN, 1st day (Test for nephrotoxicity): 27.5 mg/100 ml
- BUN, 4th day (Test for nephrotoxicity): 26.4 mg/100 ml
- BUN, 8th day (Test for nephrotoxicity): 28.4 mg/100 ml
- IC50 (concentration required for 50% inhibition of growth) [2]: 0.42 µg/mL
- T/C (%) (murine leukemia L1210; 12.5 mg/kg i.p.): 130%
- T/C (%) (murine leukemia L1210; 25 mg/kg i.p.): 180%
- T/C (%) (murine leukemia L1210; 50 mg/kg i.p.): 231%

From patent publication US5395947A, “Platinum(II) complex and processes for preparing the same” (Sunkyong Industries, Ltd., priority 1991, dated 1995)
